Measured values taken from ChEMBL document CHEMBL5321278, “Discovery of Aminoratjadone Derivatives as Potent Noncovalent CRM1 Inhibitors” (J Med Chem, 2023).
The source made the active and inactive calls. No cut-off for these calls is given here. Where a SMILES comes first, the peptide text is derived from it. The star is where a group is joined. Cbz = O=C(OCc1ccccc1)*

Assays:
Exportin-1 [1] = biological target: T1, Exportin-1 (Homo sapiens, UniProt O14980); assay: Inhibition of CRM1 nuclear export in human HeLa cells assessed as CRM1 depletion at 10 uM measured after 6 hrs; format: cell-based
Exportin-1 [2] = biological target: T1, Exportin-1; assay: Non-covalent inhibition of CRM1 (unknown origin) assessed as reversal of GST-tagged NES peptide binding
Exportin-1 [3] = biological target: T1, Exportin-1; assay: Non-covalent inhibition of CRM1 (unknown origin) assessed as reversal of GST-tagged NES peptide binding pretreated with CRM1 followed by compound addition and measured after 2 hrs
Exportin-1 [4] = biological target: T1, Exportin-1; assay: Inhibition of CRM1 (unknown origin) assessed as binding of GST-tagged NES peptide
Exportin-1 [5] = biological target: T1, Exportin-1; assay: Inhibition of CRM1-mediated nuclear export in human HeLa cells expressing mCherry-tagged NES reporter incubated for 3 hrs by confocal microscopy analysis; format: cell-based; settings: for inhibition: dose 0.09-3 µM
[6] = tested on: Exportin-1 (Homo sapiens), O14980 [C528S]; assay: Inhibition of CRM1 C528S mutant-mediated nuclear export in human HeLa cells expressing mCherry-tagged NES reporter at 1 uM incubated for 3 hrs by confocal microscopy analysis; format: cell-based
Exportin-1 [7] = biological target: T1, Exportin-1; assay: Inhibition of CRM1 nuclear export in human HeLa cells assessed as CRM1 depletion measured after 6 hrs; format: cell-based; settings: for inhibition: dose 0.1-9 µM
HeLa [8] = assay: Downregulation of CRM1 expression in human HeLa cells at 9 uM incubated for 6 hrs by Western blot analysis; format: functional, cell-based
HeLa [9] = assay: Downregulation of CRM1 mRNA expression in human HeLa cells at 9 uM incubated for 6 hrs; format: functional, cell-based
HCT-116 [10] = assay: Cytotoxicity against human HCT-116 cells assessed as reduction in cell viability incubated for 72 hrs by CCK-8 assay; format: functional, cell-based; settings: HCT-116, 72 h
Exportin-1 [11] = biological target: T1, Exportin-1; assay: Inhibition of CRM1-mediated nuclear export in human HCT-116 cells assessed as inhibition of nuclear export of cargoes at 1 uM; format: cell-based
[12] = tested on: Exportin-1 (Homo sapiens), O14980 [C528S]; assay: Inhibition of CRM1 C528S mutant-mediated nuclear export in human HCT-116 cells assessed as inhibition of nuclear export of cargoes at 1 uM; format: cell-based
RKO [13] = assay: Cytotoxicity against human RKO cells assessed as reduction in cell viability incubated for 72 hrs by CCK-8 assay; format: functional, cell-based
HCT-116 [14] = assay: Cytotoxicity against SiRNA mediated CRM1 knockdown human HCT-116 cells assessed as reduction in cell viability at 0.3 to 1 uM incubated for 72 hrs by CCK-8 assay; format: functional, cell-based; settings: dose 0.3-1 µM
RKO [15] = assay: Cytotoxicity against SiRNA mediated CRM1 knockdown human RKO cells assessed as reduction in cell viability at 0.3 to 1 uM incubated for 72 hrs by CCK-8 assay; format: functional, cell-based; settings: dose 0.3-1 µM
Exportin-1 [16] = biological target: T1, Exportin-1; assay: Inhibition of CRM1 nuclear export in human HeLa cells assessed as CRM1 depletion at 1 uM measured after 6 hrs; format: cell-based
HCT-116 [17] = assay: Induction of apoptosis in human HCT-116 cells assessed as increase in cleaved PARP-1 level by Western blot analysis; format: functional, cell-based
HCT-116 [18] = assay: Induction of apoptosis in human HCT-116 cells assessed as viable cells at 0.5 uM measured after 24 hrs by AnnexinV-FITC/propidium iodide staining based flow cytometric analysis (reference value: 89.32%); format: functional; settings: read-out: Activity
HCT-116 [19] = assay: Induction of apoptosis in human HCT-116 cells assessed as early apoptotic at 0.5 uM measured after 24 hrs by AnnexinV-FITC/propidium iodide staining based flow cytometric analysis (reference value: 3.55%); format: functional
HCT-116 [20] = assay: Induction of apoptosis in human HCT-116 cells assessed as late apoptotic at 0.5 uM measured after 24 hrs by AnnexinV-FITC/propidium iodide staining based flow cytometric analysis (reference value: 4.91%); format: functional
HCT-116 [21] = assay: Induction of apoptosis in human HCT-116 cells assessed as necrotic at 0.5 uM measured after 24 hrs by AnnexinV-FITC/propidium iodide staining based flow cytometric analysis (reference value: 2.22%); format: functional
HCT-116 [22] = assay: Induction of apoptosis in human HCT-116 cells assessed as viable cells at 1 uM measured after 24 hrs by AnnexinV-FITC/propidium iodide staining based flow cytometric analysis (reference value: 89.32%); format: functional; settings: read-out: Activity
HCT-116 [23] = assay: Induction of apoptosis in human HCT-116 cells assessed as early apoptotic at 1 uM measured after 24 hrs by AnnexinV-FITC/propidium iodide staining based flow cytometric analysis (reference value: 3.55%); format: functional
HCT-116 [24] = assay: Induction of apoptosis in human HCT-116 cells assessed as late apoptotic at 1 uM measured after 24 hrs by AnnexinV-FITC/propidium iodide staining based flow cytometric analysis (reference value: 4.91%); format: functional
HCT-116 [25] = assay: Induction of apoptosis in human HCT-116 cells assessed as necrotic at 1 uM measured after 24 hrs by AnnexinV-FITC/propidium iodide staining based flow cytometric analysis (reference value: 2.22%); format: functional
RKO [26] = assay: Induction of apoptosis in human RKO cells assessed as viable cells at 0.5 uM measured after 24 hrs by AnnexinV-FITC/propidium iodide staining based flow cytometric analysis (reference value: 92.51%); format: functional; settings: read-out: Activity
RKO [27] = assay: Induction of apoptosis in human RKO cells assessed as early apoptotic at 0.5 uM measured after 24 hrs by AnnexinV-FITC/propidium iodide staining based flow cytometric analysis (reference value: 1.79%); format: functional
RKO [28] = assay: Induction of apoptosis in human RKO cells assessed as late apoptotic at 0.5 uM measured after 24 hrs by AnnexinV-FITC/propidium iodide staining based flow cytometric analysis (reference value: 4.70%); format: functional
RKO [29] = assay: Induction of apoptosis in human RKO cells assessed as necrotic at 0.5 uM measured after 24 hrs by AnnexinV-FITC/propidium iodide staining based flow cytometric analysis (reference value: 1%); format: functional
RKO [30] = assay: Induction of apoptosis in human RKO cells assessed as viable cells at 1 uM measured after 24 hrs by AnnexinV-FITC/propidium iodide staining based flow cytometric analysis (reference value: 92.51%); format: functional; settings: read-out: Activity
RKO [31] = assay: Induction of apoptosis in human RKO cells assessed as early apoptotic at 1 uM measured after 24 hrs by AnnexinV-FITC/propidium iodide staining based flow cytometric analysis (reference value: 1.79%); format: functional
RKO [32] = assay: Induction of apoptosis in human RKO cells assessed as late apoptotic at 1 uM measured after 24 hrs by AnnexinV-FITC/propidium iodide staining based flow cytometric analysis (reference value: 4.70%); format: functional
RKO [33] = assay: Induction of apoptosis in human RKO cells assessed as necrotic at 1 uM measured after 24 hrs by AnnexinV-FITC/propidium iodide staining based flow cytometric analysis (reference value: 1%); format: functional
Exportin-1 [34] = biological target: T1, Exportin-1; assay: Binding affinity to CRM1 (unknown origin) assessed as dissociation constant by microscale thermophoresis assay
Exportin-1 [35] = biological target: T1, Exportin-1; assay: Binding affinity to CRM1 in human HCT-116 cells assessed as thermal stabilization at 50 uM at 50 to 68 degreeC incubated for 3 mins by […] analysis; format: cell-based
HCT-116 [36] = assay: Inhibition of colony formation in human HCT-116 cells assessed as decrease in colonies upto 0.5 uM incubated for 72 hrs by crystal violet staining based assay; format: functional, cell-based
RKO [37] = assay: Inhibition of colony formation in human RKO cells assessed as decrease in colonies upto 0.5 uM incubated for 72 hrs by crystal violet staining based assay; format: functional, cell-based
RKO [38] = assay: Induction of apoptosis in human RKO cells assessed as increase in cleaved PARP-1 level by Western blot analysis; format: functional, cell-based
Exportin-1 [39] = biological target: T1, Exportin-1; assay: Inhibition of CRM1 nuclear export in human HeLa cells assessed as CRM1 depletion at 50 uM measured after 6 hrs; format: cell-based
Exportin-1 [40] = biological target: T1, Exportin-1; assay: Inhibition of CRM1-mediated nuclear export in human HeLa cells expressing mCherry-tagged NES reporter at 1 uM incubated for 3 hrs by confocal microscopy analysis; format: cell-based

Exportin-1 (Homo sapiens), O14980 [C528S], sequence (O14980 whole entry C528S): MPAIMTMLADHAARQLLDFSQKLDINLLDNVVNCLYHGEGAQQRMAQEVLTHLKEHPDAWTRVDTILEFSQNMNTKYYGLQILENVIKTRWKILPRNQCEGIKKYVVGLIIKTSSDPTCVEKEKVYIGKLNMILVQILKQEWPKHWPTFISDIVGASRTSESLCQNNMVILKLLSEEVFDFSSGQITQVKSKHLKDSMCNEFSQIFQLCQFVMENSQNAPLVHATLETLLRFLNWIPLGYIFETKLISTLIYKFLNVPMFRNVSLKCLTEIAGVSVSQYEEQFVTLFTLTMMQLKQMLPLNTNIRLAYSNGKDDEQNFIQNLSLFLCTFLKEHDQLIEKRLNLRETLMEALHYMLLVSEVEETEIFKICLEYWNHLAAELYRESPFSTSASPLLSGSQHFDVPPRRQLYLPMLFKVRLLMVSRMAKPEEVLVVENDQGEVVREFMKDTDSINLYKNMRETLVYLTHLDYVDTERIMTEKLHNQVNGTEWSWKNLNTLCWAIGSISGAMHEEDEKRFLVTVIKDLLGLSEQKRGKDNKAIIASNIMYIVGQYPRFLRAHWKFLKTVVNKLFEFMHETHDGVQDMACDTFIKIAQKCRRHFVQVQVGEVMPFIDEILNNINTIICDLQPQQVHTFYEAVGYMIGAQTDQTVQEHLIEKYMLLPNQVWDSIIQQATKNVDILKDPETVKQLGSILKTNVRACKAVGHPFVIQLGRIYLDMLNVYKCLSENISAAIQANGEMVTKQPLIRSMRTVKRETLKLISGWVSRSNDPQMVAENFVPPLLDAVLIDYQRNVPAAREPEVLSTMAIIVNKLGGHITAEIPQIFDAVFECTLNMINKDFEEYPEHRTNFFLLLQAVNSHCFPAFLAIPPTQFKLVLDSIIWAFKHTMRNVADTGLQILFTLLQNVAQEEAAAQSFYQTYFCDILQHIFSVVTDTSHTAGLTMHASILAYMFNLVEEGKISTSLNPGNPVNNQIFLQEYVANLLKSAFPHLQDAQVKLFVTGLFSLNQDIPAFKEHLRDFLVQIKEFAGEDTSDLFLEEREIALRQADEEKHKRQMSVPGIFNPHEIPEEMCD
T1 sequence (O14980 whole entry): as the sequence (O14980 whole entry C528S) above, with S528C counted along it

SMILES: CCN(CC)CCCC(C)Nc1ccnc2cc(Cl)ccc12 (configuration not stated)
- inhibition (Exportin-1 [1]): Active

SMILES: C/C=C/[C@@H]1O[C@H]([C@@H](N)/C=C/C=C(\C)C[C@@H](C)/C=C(C)\C=C\[C@H](O)C[C@H](N)CC(=O)OC)C[C@H](O)[C@@H]1C
- inhibition (Exportin-1 [2]): Active
- inhibition (Exportin-1 [3]): Active
- inhibition (Exportin-1 [4]): Active
- IC50 (Exportin-1 [5]): 340 nM
- inhibition (Exportin-1 [5]): Dose-Dependent Effect
- inhibition [6]: Active
- IC50 (Exportin-1 [7]): 550 nM
- inhibition (Exportin-1 [7]): Active
- Activity (HeLa [8]): inactive
- Activity (HeLa [9]): inactive
- IC50 (HCT-116 [10]): 320 nM
- inhibition (Exportin-1 [11]): Active
- inhibition [12]: inactive
- IC50 (RKO [13]): 300 nM
- Activity (HCT-116 [14]): Active
- Activity (RKO [15]): Active

SMILES: O=C(/C=C\n1cnc(-c2cc(C(F)(F)F)cc(C(F)(F)F)c2)n1)NNc1cnccn1
- inhibition (Exportin-1 [16]): inactive

SMILES: C/C=C/[C@@H]1O[C@H]([C@H](N)/C=C/C=C(\C)C[C@@H](C)/C=C(C)\C=C\[C@H](O)C[C@H](N)CC(=O)OC)C[C@H](O)[C@@H]1C
- Activity (HCT-116 [17]): Active
- viability at 0.5 µM (HCT-116 [18]): 78%
- Activity (HCT-116 [19]): 5.73%
- Activity (HCT-116 [20]): 12.47%
- Activity (HCT-116 [21]): 3.75%
- viability at 1 µM (HCT-116 [22]): 62.4%
- Activity (HCT-116 [23]): 4.32%
- Activity (HCT-116 [24]): 25.08%
- Activity (HCT-116 [25]): 8.17%
- viability at 0.5 µM (RKO [26]): 78.8%
- Activity (RKO [27]): 3.34%
- Activity (RKO [28]): 11.78%
- Activity (RKO [29]): 6.09%
- viability at 1 µM (RKO [30]): 70.9%
- Activity (RKO [31]): 2.78%
- Activity (RKO [32]): 18.43%
- Activity (RKO [33]): 7.93%
- inhibition (Exportin-1 [2]): Active
- Kd (Exportin-1 [34]): 4600 nM
- inhibition (Exportin-1 [4]): Active
- IC50 (Exportin-1 [5]): 280 nM
- inhibition (Exportin-1 [5]): Dose-Dependent Effect
- inhibition [6]: Active
- IC50 (Exportin-1 [7]): 270 nM
- inhibition (Exportin-1 [7]): Active
- Activity (HeLa [8]): inactive
- Activity (HeLa [9]): inactive
- IC50 (HCT-116 [10]): 120 nM
- inhibition (Exportin-1 [11]): Active
- inhibition [12]: inactive
- IC50 (RKO [13]): 190 nM
- Activity (HCT-116 [14]): Active
- Activity (RKO [15]): Active
- Activity (Exportin-1 [35]): Active
- inhibition (HCT-116 [36]): Active
- inhibition (RKO [37]): Active
- Activity (RKO [38]): Active

SMILES: C/C=C/[C@@H]1O[C@H]([C@H](N)/C=C/C=C(\C)C[C@@H](C)/C=C(C)\C=C\[C@H](O)C[C@H](N)CC(=O)O)C[C@H](O)[C@@H]1C
- Kd (Exportin-1 [34]): 5900 nM

SMILES: C/C=C/[C@@H]1O[C@H]([C@@H](N)/C=C/C=C(\C)C[C@@H](C)/C=C(C)\C=C\[C@H](O)C[C@@H](CC(=O)NCCO)NCCO)C[C@H](O)[C@@H]1C
- inhibition (Exportin-1 [4]): inactive
- inhibition (Exportin-1 [16]): inactive

SMILES: CC(C)C[C@@H](C=O)NC(=O)[C@H](CC(C)C)NC(=O)[C@H](CC(C)C)NC(=O)OCc1ccccc1 (Cbz-Leu-Leu-Leu-aldehyde)
- inhibition (Exportin-1 [39]): Active

SMILES: C/C=C/[C@@H]1O[C@H]([C@@H](N)/C=C/C=C(\C)C[C@@H](C)/C=C(C)\C=C\[C@H](O)C[C@H](N)CC(N)=O)C[C@H](O)[C@@H]1C
- inhibition (Exportin-1 [4]): inactive
- inhibition (Exportin-1 [40]): inactive
- inhibition (Exportin-1 [16]): inactive
